Measurements taken from article PMC12323867 (RSC Medicinal Chemistry, 2025).
pIC50: −log10 of the molar value.

Columns and labels:
LSD1 in HCT116 cells = target: T1, LSD1 in HCT116 cells (Homo sapiens, UniProt O60341); experiment: LSD1 degradation (LSD1 abundance) by western blot; format: cell-based; details: HCT116, 0.1–10 μM, 24 hours, LSD1 antibody
T1 construct: host or cells: HCT116
Method: Using the same conditions, we also determined the effects of SP2509, 25, 27, 28, 30 and 31 on histone H3 lysine 4 dimethyl (H3K4me2) a validated substrate for LSD1 using a specific antibody for H3K4me2 (Fig. S4 ^†).
Compounds were tested at concentration ranges of 0.2–20 μM and LSD1 abundance was quantified at 24 hours (Fig. S5 ^†). 49, 52 and 54 were also evaluated at 48 and 72 hours. […] We also determined the effects of these compounds on the histone methyl marker H3K4me2 (Fig. S5 and S6 ^†).
2.5 Protocols for LSD1 degradation and histone methylation in HCT116 cells HCT116 human colon carcinoma cells were grown in Dulbecco’s Modified Eagle Medium (DMEM) supplemented with Fetal Bovine Serum (FBS, 10% final concentration) and 1x glutamine/penicillin/streptomycin. Cells were incubated at 37 °C and 5% CO2. Cells were treated […]
untreated (WT) cells were included as controls.
HCT116 cells were seeded into six well plates (400000 cells per well) and after requisite compound treatment time (24h, 48h, 72h) cells were harvested and either snap-frozen in liquid nitrogen or lysed in lysis buffer (50mM Tris-HCl, 150 mM NaCl, 0.5% NP-40, 0.5% Triton X-100 + protease inhibitor) on ice for 30 mins. This was centrifuged (15000 rpm, 4 °C, 15 mins) and the supernatant collected.
H2SO4 (0.4 M, equal volume) was added to the pellets for histone extraction and the tubes incubated overnight at 4 °C. Following this, the histone extract was centrifuged (15000 rpm, 4 °C, 15 mins) and the supernatant collected. Protein concentrations of whole cell extract were quantified via Bradford Assay using BIO-RAD Protein Assay Dye Reagent Concentrate. […]
or an equivalent volume of histone extract loaded per lane, with all extracts dyed with 4x NuPAGE LDS Sample Buffer. PageRuler Plus Prestained Ladder was used as a reference. Gel electrophoresis was carried out at 140 V for 60-90 mins, following which the proteins were transferred onto nitrocellulose membrane at 30 V for 60 mins. Membranes were blocked in LI-COR Intercept Blocking Buffer overnight at RT on a roller, following which the membrane was probed with primary antibodies for 1 h at RT. The membrane was washed with PBS + 0.1% Tween (3 x 10 mins), then incubated with secondary antibodies for 50 mins at RT. The membrane was washed again (PBS Tween 2 x 10 mins, PBS 1 x 10 mins) following which the blot was visualised with the Odyssey Infrared Imaging System. Image processing and quantification was performed with ImageStudio Lite. […]
a-tubulin (mouse) – Sigma, t5168 (1:10000 dilution)

HCT116 cells = experiment: CTG cell viability assay; format: cell-based, human; details: HCT116, CellTiter-Glo, 0.0041-10 uM, 24-48 h (Fig. S3)
Method: 2.4. CTG cell viability assays
HCT116 cells were seeded onto 96-well plates at a density of 2000 cells/well and allowed 24 h to settle. Cells were then treated with LSD1 inhibitors (0.0041-10 uM) alongside WT, DMSO and cell free control wells for 24-48 h. After this time, plates were equilibrated to RT for 30 mins, then CellTiter-Glo (Promega, G9242) reagent (5 uL/100 uL media) was added. Cells were lysed on an orbital shaker for 10 mins, then incubated at RT for 2 mins to allow luminescence to stabilise, following which luminescence was recorded on a HiDEX Sense microplate reader. To obtained plotted values, luminescence of each tested well was divided by that of the DMSO control, which were plotted against concentration using GraphPad Prism. […] was applied to obtain apparent IC50 values where possible.
Figure S3. Cell viability dose response curves
(1 picture or pasted object on this page, not shown here)

LSD1 = details: evaluated not part of the CoREST complex; read-out: LSD1 IC50; cited from earlier work

Question: With `C/C(=N\NC(=O)c1cccc(S(=O)(=O)N2CCOCC2)c1)c1cc(Cl)ccc1O` [SP2509, reference compound] as the compound, how does the “LSD1 abundance (degradation)” value (LSD1 in HCT116 cells) read?
Answer: no degradation or change in LSD1 levels

Question: And the “cytotoxic effects in cells” value (HCT116 cells)?
Answer: significant cytotoxic effects

Question: What about the pIC50 (LSD1) of the same compound?
Answer: 7.89
